In patent US5869448A, “Cyclic CS-1 peptidomimetics, compositions and methods of using same” (Cytel Corporation, priority 1995, dated 1999):
Several values for one entry are separate records, joined by “and”; a condition that tells them apart may be missing. Equal values may be shown once. Positions of bridges follow the written chain, without caps; N, C: chain ends. Residues, ends and D or L forms follow the SMILES beside them. *: point of attachment. PhAc = O=C(Cc1ccccc1)*

Columns and labels:
VLA-4/CS-1 = biological target: T1, VLA-4/CS-1 (Homo sapiens, UniProt P05556+P13612); experiment: In vitro inhibition of binding of 51Cr-labeled Jurkat cells to solid phase-bound CS-1 peptide; assay type: cell-based
T1 construct: inflammatory cells that contain the VLA-4 receptor [Jurkat cells; host or cells: Jurkat (human T lymphoblastic line)
T1 sequence (P13612 34-1032): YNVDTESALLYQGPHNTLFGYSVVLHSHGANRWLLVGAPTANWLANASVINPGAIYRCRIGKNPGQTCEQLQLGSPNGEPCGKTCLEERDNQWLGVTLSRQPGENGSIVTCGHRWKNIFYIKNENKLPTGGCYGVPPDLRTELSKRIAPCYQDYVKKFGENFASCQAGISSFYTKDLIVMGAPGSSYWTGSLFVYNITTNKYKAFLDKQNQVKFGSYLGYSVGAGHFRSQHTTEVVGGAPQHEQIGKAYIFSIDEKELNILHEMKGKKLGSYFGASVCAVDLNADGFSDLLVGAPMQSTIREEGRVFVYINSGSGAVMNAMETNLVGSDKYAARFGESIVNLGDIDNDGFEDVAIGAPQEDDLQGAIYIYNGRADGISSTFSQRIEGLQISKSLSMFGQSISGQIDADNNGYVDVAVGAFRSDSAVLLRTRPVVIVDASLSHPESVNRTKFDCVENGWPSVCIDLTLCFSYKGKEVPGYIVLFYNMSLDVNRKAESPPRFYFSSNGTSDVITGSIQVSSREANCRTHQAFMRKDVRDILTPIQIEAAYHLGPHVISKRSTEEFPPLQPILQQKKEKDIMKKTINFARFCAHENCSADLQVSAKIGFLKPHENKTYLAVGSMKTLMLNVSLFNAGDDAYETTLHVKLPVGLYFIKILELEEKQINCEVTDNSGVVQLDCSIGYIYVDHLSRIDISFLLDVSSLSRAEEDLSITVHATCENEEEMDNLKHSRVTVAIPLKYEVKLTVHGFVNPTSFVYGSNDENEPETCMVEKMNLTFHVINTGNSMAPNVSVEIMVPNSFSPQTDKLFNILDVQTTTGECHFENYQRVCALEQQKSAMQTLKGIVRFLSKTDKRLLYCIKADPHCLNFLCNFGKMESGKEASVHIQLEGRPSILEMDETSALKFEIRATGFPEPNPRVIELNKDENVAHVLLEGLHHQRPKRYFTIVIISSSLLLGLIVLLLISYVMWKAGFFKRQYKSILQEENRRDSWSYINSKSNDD
T1 sequence (P05556 21-798): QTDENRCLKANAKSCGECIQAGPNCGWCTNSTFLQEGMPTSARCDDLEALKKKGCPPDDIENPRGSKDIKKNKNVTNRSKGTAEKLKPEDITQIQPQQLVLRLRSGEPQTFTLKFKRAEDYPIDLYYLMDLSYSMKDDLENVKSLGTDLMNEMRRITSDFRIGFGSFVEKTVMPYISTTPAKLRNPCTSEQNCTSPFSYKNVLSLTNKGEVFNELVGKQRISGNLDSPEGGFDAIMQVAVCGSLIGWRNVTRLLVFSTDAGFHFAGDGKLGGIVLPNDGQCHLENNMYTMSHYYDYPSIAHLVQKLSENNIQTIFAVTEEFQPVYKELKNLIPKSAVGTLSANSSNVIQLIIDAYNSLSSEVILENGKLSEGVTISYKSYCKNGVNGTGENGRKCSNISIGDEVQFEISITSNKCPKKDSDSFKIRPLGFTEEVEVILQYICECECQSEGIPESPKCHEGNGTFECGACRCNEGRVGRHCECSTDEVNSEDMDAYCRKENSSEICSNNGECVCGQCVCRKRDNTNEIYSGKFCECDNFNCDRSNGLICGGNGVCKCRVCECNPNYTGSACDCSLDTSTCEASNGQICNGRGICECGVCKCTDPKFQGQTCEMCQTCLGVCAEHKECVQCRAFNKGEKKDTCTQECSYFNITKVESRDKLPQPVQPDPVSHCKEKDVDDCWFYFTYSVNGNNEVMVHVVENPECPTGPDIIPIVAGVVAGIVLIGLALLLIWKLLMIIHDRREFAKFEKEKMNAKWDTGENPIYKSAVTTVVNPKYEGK
Procedure: Binding inhibition is measured here as a concentration of peptide that inhibits one-half the binding between a standard number of Jurkat cells and a standard amount of CS-1 peptide bound to the surface of a microtiter plate well. Those concentrations are conveniently expressed as IC50 values, smaller numbers indicating a lower concentration required to inhibit 50 percent binding and therefore greater potency. Further specifics of this assay are provided hereinafter.
Jurkat cells (ATCC TIB 152), a human T lymphoblastic line, labeled with ^51 chromium were used to assay in vitro binding inhibition provided by various peptides discussed herein.
The plates were prepared as follows: The 25-mer CS-1 peptide (SEQ ID NO:5) dissolved at 0.5-1 μg/ml in a buffer of 0.1M NaHCO3 at pH 9.5 that also contained 10 μg/ml of bovine serum albumin (BSA) or a conjugate of the CS-1 peptide linked to ovalbumin (CS-1-OVA) dissolved at 1-2.5 μg/ml in the same buffer was used as the substrate. Each well of the microtiter plates was coated with 50 μl of substrate or buffer alone for controls. The wells were permitted to dry out completely and were then rinsed twice with PBS at pH 7.4. Non-specific binding sites of each well were then blocked using 200 μl per well of RPMI/1 percent BSA for two hours at room temperature. Both solid phase-affixed substrates provided similar results.
Jurkat cells (3-5×10^6 cells) were placed into a 15 ml FALCON™ round-bottom tube with a cap. The tube was centrifuged, and the extra medium was then removed.
Two hundred microliters of a ^51 Cr labeling solution were added to the centrifuged cells and maintained in contact with the cells for 90-120 minutes in a warm room. This procedure typically provides about 50,000-100,000 cpm/well with about 80-100 percent cell viability. Longer contact times provide a greater amount of labeling but lower cell viability.
The labeled cells were washed with (i) complete medium, (ii) 1 mM EDTA/PBS and then (iii) RPM1/1 percent BSA free of serum components. The cells were centrifuged after each washing. The cells were finally resuspended in serum-free RPMI/1 percent BSA at a concentration of 1×10^6 viable cells/ml, which provides a concentration that is diluted by one-half in the assay.
Cyclic inhibitor peptides were prepared as stock solutions at 20 mg/ml in DMSO in 1.5 ml cryogenic screwcap vials, and were stored at -70° C. Using FLOW™ round-bottom or V-bottom microtiter plates, the inhibitor peptides were prepared at twice the assay concentration in RPMI/1 percent BSA at 60 μl/well.
Four initial dilutions were typically used.
The ^51 Cr-labeled cells (1×10^6 cells at 60 μl/well) were then admixed with the diluted cyclic peptide solutions. The admixtures were maintained at room temperature (about 22° C.) for 30 minutes.
One hundred microliters of each inhibitor peptide/cell admixture were transferred to the substrate-coated wells. This was done in triplicate for each dilution. The resulting plates were incubated for 30 minutes at 37° C. and then washed gently three times with RPMI/1 percent BSA at 200 μl/well. Binding was observed microscopically, particularly after the second wash.
The bound cells were then lysed by the addition of a 0.5 percent solution of sodium dodecylsulfate in water at 100 μl/well. The resulting solutions were then processed for counting and calculation of IC50 values following usual procedures. Appropriate positive and negative controls were used with each plate so that the results of separate assays could be normalized and compared.
The potency data of Table 1 and Table 2 are so normalized. The absolute IC50 value for the peptide of SEQ ID NO:7 is 0.3 μM.

VLA-4/sVCAM-1 = biological target: T2, VLA-4/sVCAM-1 (Homo sapiens, UniProt P05556+P13612); experiment: In vitro inhibition of binding of Jurkat cells to solid phase-bound sVCAM-1; assay type: cell-based
T2 construct: host or cells: Jurkat cells (VLA-4). sVCAM-1 was made in house in transfected human 293 cells (ATCC CRL 1573) and purified from supernatant
T2 sequence (P13612 34-1032): as the sequence (P13612 34-1032) above
T2 sequence (P05556 21-798): as the sequence (P05556 21-798) above
Procedure: Assays conducted using sVCAM-1 as solid phase-bound antigen were carried out substantially identically to those using CS-1. The sVCAM-1 polypeptide used had the same amino acid residue sequence as the materials described in Lobb et al., Biochem. Biophys. Res. Commun., 178:1498-1504 (1991) and Cybulsky et al., Proc. Natl. Acad. Sci., USA, 88:7859-7863 (1991). Human embryonal kidney line 293 (ATCC CRL 1573) cells were co-transfected with a plasmid (pCDNAI;invitrogen) containing the sVCAM-1 DNA sequence and plasmid pSV2-neo [Southern et al., J. Mol. Appl. Gen., 1:327341 (1992)]. Cells were selected in DMEM, 10 percent fetal bovine serum and 600 μg/ml Geneticin. sVCAM-1 was purified from supernatants using a column containing monoclonal antibody P3H12 (anti-human VCAM-1) coupled to Sepharose 4B. The sVCAM-1 was eluted using 0.1M glycine at pH 2.5 following 50 column washes with PBS, pH 7.2. The eluate was immediately neutralized and dialyzed against PBS for use.

[1] = Retention of potency in PBS containing 10 percent mouse or human serum; assay type: in vitro ADME; settings: PBS at 7.2-7.4 with 10 percent mouse or human serum
[2] = system: Porcine peripheral blood lymphocytes; experiment: In vitro porcine allograft model, transendothelial lymphocyte migration; assay type: cell-based; settings: 10 μg/ml in the medium, IL-1β-stimulated SMC
Procedure: A similar study is carried out in vitro using porcine coronary artery endothelial cells (EC; as are present in the IEL) and smooth muscle cells (SMC; as are present in the medial layer of the artery). The two cell types are cultured using a membrane transwell system, with the SMC on the bottom layer in M-199 medium (Gibco Labs.). The SMC are stimulated with 100 ng/ml of interleukin-1β (IL-1β) for 24 hours prior to the start of the assay. Porcine peripheral blood lymphocytes are separated by Ficoll-Hypaque, radiolabeled and incubated overnight (about 18 hours) on the EC.
Transendothelial lymphocyte migration in the IL-1β-stimulated SMC is observed as compared to unstimulated SMC (p<0.05).

[3] = in vivo; cited from earlier work
[4] = Table 2, normalized, relative to standard peptide of SEQ ID NO:6
[5] = Table 1, normalized IC50, standard peptide of SEQ ID NO:6 = 1

## NC(=O)[C@@H]1CSSC[C@H](NC(=O)Cc2ccccc2)C(=O)N[C@@H](CC(=O)O)C(=O)N[C@@H](Cc2ccccc2)C(=O)N1 [SEQ ID NO:7, N-phenylacetyl-Cys-Asp-Phe-Cys-NH2] (PhAc-CDFC-NH2; disulfide 1-4)
VLA-4/CS-1
  potency relative to the best linear peptide (XLDFZ), Jurkat cell binding to CS-1: about two-thirds
VLA-4/CS-1; Jurkat cells, solid phase-bound CS-1, read-out: absolute IC50 value
  IC50: 300 nM
VLA-4/CS-1; [4]
  Relative Potency: 954
VLA-4/CS-1; XLDFp = 1
  CS-1 binding inhibition potencies relative to each other: ~1.8
VLA-4/CS-1; times more potent than standard 10-mer
  inhibition potency relative to the Standard 10-mer of SEQ ID NO:6: 500-600 and ~563
VLA-4/sVCAM-1
  potency relative to the best linear peptide (XLDFZ), Jurkat cell binding to sVCAM-1: about 3 times
[1]; 24 hours
  loss of potency after 24 hours: no loss of potency

## CC(C)C[C@@H]1NC(=O)[C@H](Cc2ccccc2)NC(=O)[C@@H](N)CSSC[C@@H](C(N)=O)NC(=O)[C@H](CO)NC(=O)[C@@H]2CCCN2C(=O)[C@H](Cc2ccccc2)NC(=O)[C@H](CC(=O)O)NC1=O [SEQ ID NO:13, CFLDFPSC--NH2] (H-CFLDFPSC-NH2; disulfide 1-8)
[2]
  transendothelial lymphocyte migration: reduces lymphocyte migration

## CS-1 peptide: 25-residue (25-mer) CS-1 portion of fibronectin that binds to the VLA-4 receptor (DELPQLVTLPHPNLHGPEILDVPST) [reference compound]
[1]
  time in which potency is lost: less than one
[3]
  clearance from blood circulation: rapidly cleared

## CC(C)C[C@@H]1NC(=O)[C@H](Cc2ccccc2)NC(=O)[C@@H](N)CSSC[C@@H](C(N)=O)NC(=O)[C@H]([C@@H](C)O)NC(=O)[C@H](CO)NC(=O)[C@@H]2CCCN2C(=O)[C@H](Cc2ccccc2)NC(=O)[C@H](CC(=O)O)NC1=O [SEQ ID NO:15, CFLDFPSTC--NH2] (H-CFLDFPSTC-NH2; disulfide 1-9)
VLA-4/CS-1; [4]
  Relative Potency: 81.4

## NC(=O)[C@@H]1CCCN1C(=O)[C@@H]1CSSC[C@H](NC(=O)[C@@H](N)Cc2ccccc2)C(=O)N[C@@H](CC(=O)O)C(=O)N1 [compound 30] (H-FCDCP-NH2; disulfide 2-4)
VLA-4/CS-1; [5]
  Relative Potency: < 1

## CC(=O)N[C@@H](CC(C)C)C(=O)N[C@@H](CC(=O)O)C(=O)N[C@@H](Cc1ccccc1)C(N)=O [AcLDF--NH2] (Ac-Leu-Asp-Phe-NH2)
VLA-4/CS-1; [5]
  Relative Potency: < 1

## CC(C)C[C@@H]1NC(=O)[C@@H](N)CSSC[C@@H](C(N)=O)NC(=O)[C@H](Cc2ccccc2)NC(=O)[C@H](CC(=O)O)NC1=O [compound 28] (H-CLDFC-NH2; disulfide 1-5)
VLA-4/CS-1; [5]
  Relative Potency: 1

## NC(=O)[C@@H]1CSSC[C@H](NC(=O)Cc2ccccc2)C(=O)N[C@@H](CC(=O)O)C(=O)N[C@@H](Cc2ccccc2)C(=O)N1 [compound 7] (PhAc-CDFC-NH2; disulfide 1-4)
VLA-4/CS-1; [5]
  Relative Potency: 954

## CC(C)C[C@@H]1NC(=O)[C@H](Cc2ccccc2)NC(=O)[C@H](CCC(=O)O)NC(=O)[C@@H](N)CSSC[C@@H](C(N)=O)NC(=O)[C@H]([C@@H](C)O)NC(=O)[C@H](CO)NC(=O)[C@@H]2CCCN2C(=O)[C@H](Cc2ccccc2)NC(=O)[C@H](CC(=O)O)NC1=O [compound 22] (H-CEFLDFPSTC-NH2; disulfide 1-10)
VLA-4/CS-1; [5]
  Relative Potency: 9
